Measurements from patent publication US20090317376A1, “Compositions And Methods For Lipo Modeling” (Georgetown University MEDICAL SCHOOL, priority 2005, published 2009).
Entries after “also recorded” stand apart in the source; their conditions may differ.

Test system: human fat pads
Assay: Human fat xenograft in nude athymic mice
Assay type: in vivo
Method: In addition to augmenting mouse fat with NPY, human fat from elective liposuction surgery is harvested by using a closed syringe system (Cell Friendly, Tulip Medical) to minimize cell trauma during harvest and aliquots of 100 μl are injected subcutaneously into a nude athymic mouse. Slow release pellets of NPY or placebo are subcutaneously implanted within 1 cm of the fat pad, replaced 2 weeks later, and then harvested after 4 weeks of formation of fat pads. Ultrasound is used to monitor vascularization of fat pads at various time points. The time-course of expression of the NPY system and its downstream mediators is determined in relation to innervation, vascularization and fat growth (by MRI, ultrasound, IHC). Dependence of adipogenesis on angiogenesis is assessed by comparing non-specific, antiangiogenic therapy with the blockade of the NPY-Y2 angiogenic pathway. […] This observation is confirmed by ultrasound (FIG. 7, bottom).
Human fat implantation: The processed fat for injection is loaded into syringes. The nude mice are anesthetized and slow release pellets inserted as described above. A small nick is made with a pair of sterile scissors in the close proximity of the pellets and 100 μl of fat is implanted using an 18 gauge Coleman infiltration cannula (Byron Medical) attached to the syringe. If necessary, the skin wound is closed with medical cyanoacrylate and the mouse is allowed to recover. The fat pad growth is monitored and the sample harvested as described above.
Ultrasonography: The mice are anesthetized by inhalation of isoflurane 1-3% in oxygen, hair removed with depilatory cream and a sterile water based ultrasonic gel is applied to the area (Aquasonic gel—Visual Sonics). The mouse is placed in the Visual Sonics mouse holder containing a thermostatically controlled heating pad to maintain mouse body temperature. The imaging is performed with a small animal ultrasound system, Visual Sonics Vivo 660 (55 MHz).
1. Cell culture: 3T3-L1 preadipocyte cells, (gift from Dr. Lane,^34) were cultured in DMEM high glucose media with glutamine, 10% calf sera (Gemini Bioproducts), d-Biotin (8 μg/ml) and Pantothenate (8 μg/ml) (Sigma). SK-N-BE(2) neuroblastoma cells (ATCC) were cultured in EMEM/F12K with 10% fetal bovine sera (FBS). HMVEC endothelial cells (Cambrex) were cultured in endothelial cell growth media (Cambrex). All media was supplemented with 100 units/ml penicillin, 100 μg/ml streptomycin and […] amphotericin. 2. […] After 24 h, cells were harvested in a 96-well harvester (Tomtec) and counted in a Betaplate Liquid Scintillation Counter (Wallac). […] After 48 hr, the cells were counted with a Beckman Coulter Counter. […]

[1] = NPY pellet vs placebo pellet, FIG. 7

Q: How did the “xenograft vascularization (density of CD31+ vessels)” value (NPY pellet 1 μg/14 days alongside the xenograft) turn out when neuropeptide Y [NPY] was run?
A: Its value is “increased”.

Q: And the “xenograft 3-month survival” value (NPY pellet 1 μg/14 days, placebo-treated grafts underwent resorption)?
A: Its value is “increased”.

Q: And the “areas of more dense necrotic tissue (ultrasound)” value [1]?
A: Its value is “more in NPY-treated than placebo-treated”.

Q: And the “vacuolization / holes in fat pads (ultrasound, IHC)” value [1]?
A: Its value is “more holes in the placebo-pellet treated fat pads; also recorded: more numerous in placebo-treated than NPY-treated fat pads”.
